# Read-outs that look alike come from different tables or passages of the source.
# How the values were obtained:
# [1] = system: human mammary carcinoma (MX-1) xenografts; test: MX-1 xenograft in nude mice; format: in vivo; settings: for Average Body Weight: D11 (start of treatment, baseline weight)
# Method: (§1) Athymic nude mice bearing the nu/nu gene were used for human breast tumor MX-1 xenograft. Outbred Swiss-background mice were obtained from Charies River Breeding Laboratories. Male mice 8 weeks old or older weighing 22 g or more were used for most experiments. Drug was administrated via the tail vein by i.v. injection. Tumor volumes were assessed by measuring length×width×height (or width) by using caliper. Vehicle used was 20 μl DMSO in 180 μl saline. All animal studies were conducted in accordance with the guidelines of the National Institutes of Health Guide for the Care and Use of Animals and the protocol approved by the Memorial Sloan-Kettering Cancer Center's Institutional Animal Care and Use Committee.
# [2] = system: HCT-116; test: SRB cytotoxicity assay, solid tumor cells HCT-116; format: cell-based; settings: Homo sapiens, HCT-116, 72 h, read-out: IC50 HCT-116
# [3] = system: human T-cell lymphoblastic leukemic lymphoma xenografts (CCRF-CEM); test: CCRF-CEM xenograft in nude mice; format: in vivo
# Method: as §1
# Table 6 summarizes data related to the therapeutic effects and toxicity of compound 37 in nude mice bearing human T-cell leukemic lymphoma CCRF-CEM xenografts. About 70% of average tumor sized was reduced at the dose of 2 mg/kg (Q3D×5).
# [4] = system: A549; test: SRB cytotoxicity assay, solid tumor cells A549; format: cell-based, human; settings: for IC50: Homo sapiens, A549, SRB
# [5] = system: Topo II; test: Topo II-mediated relaxation of pRYG-DNA; format: biochemical
# [6] = system: CCRF-CEM/Taxol; test: XTT cytotoxicity assay, taxol-resistant subline; format: cell-based, human
# Method: (§2) The effects of the compounds on cell growth were determined in all human tumor cells (i.e. T-cell acute lymphocytic leukemia CCRF-CEM), in a 72 h incubation, by XTT-tetrazolium assay, as described by Scudiero et al., Cancer Res. 1988, 48, 4827-4833. After the addition of phenazine methosulfate-XTT solution at 37° C. for 6 h, absorbance at 450 and 630 nm was detected on a microplate reader (EL 340; Bio-Tek Instruments Inc., Winooski, Vt.). Six to seven concentrations of each compound were used. The IC50 and dose-effect relationships of the compounds for antitumor activity were calculated by a median-effect plot (see, e.g., Chou et al. Adv. Enzyme Regul. 1984, 22, 27-55) using a computer program on an IBM-PC workstation (see, e.g., Chou et al. Dose-Effect Analysis with Microcomputers: Quantitation of ED50, LD50, Synergism, Antagonism, Low-Dose Risk, Receptor-Ligands Binding and Enzyme Kinetics; Biosoft: Cambridge, U.K., 1987).
# (§3) Data summarizing the growth inhibition of human lymphoblastic leukemic cells (CCRF-CEM) and its drug-resistant sublines (resistant to vinblastine and taxol, CCRF-CEM/VBL and CCRF-CEM/taxol, respectively) by compound 37 is shown in Table 4.
# [7] = system: CCRF-CEM/VBL; test: XTT cytotoxicity assay, vinblastine-resistant subline; format: cell-based, human
# Method: as §2, §3
# [8] = system: DNA; test: DNA binding observed in the Topo II relaxation comparison; settings: seen in Topo II relaxation comparison
# [9] = system: human lymphoblastic leukemic cells (CCRF-CEM); test: XTT-tetrazolium cytotoxicity assay, CCRF-CEM; format: cell-based; settings: for IC50: Homo sapiens, 72 h
# Method: as §2
# [10] = 3 mg/kg Q4Dx5 i.v., column D17, marked (D15)
# [11] = 3 mg/kg Q4Dx5 i.v., column D20, marked (D19)
# [12] = number in bracket, ratio of IC50's
smiles,measurement,setting,value
"OCc1cc(Nc2c3ccccc3nc3ccccc23)cc(OCCN(CCCl)CCCl)c1 [Compound 37, (3-(Acridin-9-ylamino)-5-{2-[bis(2-chloroethyl)amino]ethoxy}phenyl)methanol]",Average Body Weight,[1]; 3 mg/kg Q4Dx5 i.v.,30.1 gm
same,Average Body Weight Change,"[1]; 3 mg/kg Q4Dx5 i.v., D14",−3.5 gm
same,Average Body Weight Change,"[1]; 3 mg/kg Q4Dx5 i.v., D23",−7.2 gm
same,Average Tumor Size (T/C),"[1]; 3 mg/kg Q4Dx5 i.v., D23",0.01
same,Tumor free,"[1]; 3 mg/kg Q4Dx5 i.v., animals tumor free/total (D27, 28)",2/3
same,Average Body Weight Change,[1]; [10],−3.3 gm
same,Average Tumor Size (T/C),[1]; [10],0.26
same,Average Body Weight Change,[1]; [11],−4.7 gm
same,Average Tumor Size (T/C),[1]; [11],0.03
same,Average Body Weight Change,"[1]; 3 mg/kg Q4Dx5 i.v., column D26, marked (D27)",−8.8 gm
same,Toxicity (death),"[1]; 3 mg/kg Q4Dx5 i.v., deaths/total (D27, 28, 29)",3/3
same,mice becoming tumor-free,"[1]; 1-2 mg/kg (Q3DX7) or 3 mg/kg (Q4D×5), intravenous injection, n=3",66.7%
same,Average Body Weight,[1]; 1-2 mg/kg Q3Dx7 i.v.,28.3 gm
same,Average Body Weight Change,"[1]; 1-2 mg/kg Q3Dx7 i.v., D14",+1.2 gm
same,Average Body Weight Change,"[1]; 1-2 mg/kg Q3Dx7 i.v., D17",−1.4 gm
same,Average Tumor Size (T/C),"[1]; 1-2 mg/kg Q3Dx7 i.v., D17",0.37
same,Average Body Weight Change,"[1]; 1-2 mg/kg Q3Dx7 i.v., D20",−3.0 gm
same,Average Tumor Size (T/C),"[1]; 1-2 mg/kg Q3Dx7 i.v., D20",0.17
same,Average Body Weight Change,"[1]; 1-2 mg/kg Q3Dx7 i.v., D23",−3.0 gm
same,Average Tumor Size (T/C),"[1]; 1-2 mg/kg Q3Dx7 i.v., D23",0.14
same,Average Body Weight Change,"[1]; 1-2 mg/kg Q3Dx7 i.v., D26",−3.9 gm
same,Tumor free,"[1]; 1-2 mg/kg Q3Dx7 i.v., animals tumor free/total (D32.32)",2/3
same,Toxicity (death),"[1]; 1-2 mg/kg Q3Dx7 i.v., deaths/total",0/3
same,IC50,[2],5.5 ± 1 nM
same,average tumor size reduced,[3]; 2 mg/kg (Q3D×5),About 70%
same,Average Body Weight,"[3]; 2 mg/kg Q3Dx5 i.v., D10 (start of treatment, baseline weight)",29.4 gm
same,Average Body Weight Change,"[3]; 2 mg/kg Q3Dx5 i.v., D13",−1.1 gm
same,Average Body Weight Change,"[3]; 2 mg/kg Q3Dx5 i.v., D16",−4.2 gm
same,Average Tumor Size (T/C),"[3]; 2 mg/kg Q3Dx5 i.v., D16",0.47
same,Average Body Weight Change,"[3]; 2 mg/kg Q3Dx5 i.v., D19",−3.3 gm
same,Average Tumor Size (T/C),"[3]; 2 mg/kg Q3Dx5 i.v., D19",0.34
same,Average Body Weight Change,"[3]; 2 mg/kg Q3Dx5 i.v., D22",−5.9 gm
same,Average Tumor Size (T/C),"[3]; 2 mg/kg Q3Dx5 i.v., D22",0.33
same,Average Body Weight Change,"[3]; 2 mg/kg Q3Dx5 i.v., D25",−6.8 gm
same,Average Tumor Size (T/C),"[3]; 2 mg/kg Q3Dx5 i.v., D25",0.34
same,Tumor free,"[3]; 2 mg/kg Q3Dx5 i.v., animals tumor free/total",0/3
same,Toxicity (death),"[3]; 2 mg/kg Q3Dx5 i.v., deaths/total",0/3
same,IC50,"[4]; 72 hours incubation, read-out: IC50 A549",5.6 ± 1.2 nM
same,IC50,"[4]; incubation for 3 hours, washed, then incubated for a total of 72 hours (footnote b), read-out: IC50 A549 after washing",5 nM
same,alteration of potency when drug washed away,[4]; washed away after incubation for 24 h,no alteration of the potency
same,Topo II-mediated relaxation of pRYG-DNA,[5],inhibited DNA relaxation
same,cross-resistance to taxol,[6]; CCRF-CEM/taxol vs CCRF-CEM,does not develop cross-resistance
same,IC50,"[6]; Homo sapiens, CCRF-CEM, 72 h, read-out: IC50 CCRF-CEM/Taxol",34 ± 13 nM
same,folds of resistance CCRF-CEM/Taxol vs CCRF-CEM parent cells,[6]; [12],1.3 ×
same,cross-resistance to vinblastine,[7]; CCRF-CEM/VBL vs CCRF-CEM,does not develop cross-resistance
same,IC50,"[7]; Homo sapiens, CCRF-CEM, 72 h, read-out: IC50 CCRF-CEM/VBL",7.5 nM
same,folds of resistance CCRF-CEM/VBL vs CCRF-CEM parent cells,[7]; [12],0.53 ×
same,binding to DNA,[8],binds relatively tightly to DNA
same,cytotoxicity relative to AHMA,[9],about 79 fold
same,IC50,[9],7 nM
same,IC50,[9]; read-out: IC50 CCRF-CEM,9.5 ± 2.5 nM

# Reference: patent publication US20080176889A1, “9-anilinoacridine alkylating agents” (priority 2004, published 2008)
